# Assay results taken from patent US9975906B2, “Tricyclic heterocycle derivatives having HIV replication inhibitory effect” (Shionogi & Co., Ltd., priority 2014, dated 2018).
# Tested on: HIV (HTLV-IIIB strain)
# Test: HIV Replication Inhibition Assay
# Format: cell-based
# Conditions: Human immunodeficiency virus 1, MT4, 96 h, MT-4 cells, cultured four days, MTT, concentration at which cell cytotoxicity by virus is inhibited 50%
# Procedure: HIV (HTLV-IIIB strain) persistent infected human T cell strain Molt-4 clone 8 was cultured in 10% Fetal Bovine Serum-containing RPMI-1640 medium and the supernatant was filtered, then the virus titer was measured and the solution was stored at −80° C. Each anti-human immunodeficiency virus active substance was diluted with the above cultured medium to the designated concentration, which was dispensed into 96 well micro plate by 50 μL. Next, a MT-4 cell suspended liquid was dispensed by 100 μL (2.5×10^4 cells), then the above HIV-containing supernatant diluted with the above cultured medium was added thereto by 50 μl (60 pfu (plaque forming unit)).
# The obtained mixture was cultured at 37° C. in CO2 incubator for four days, then 3-(4,5-dimethylthiazole-2-yl)-2,5-diphenyltetrazolynium bromide (MTT) 5 mg/mL in PBS was added to each well by 30 μL, followed by 1 hr-cultivation. In this step, as formazan was precipitated by reduction of MTT in living cells, the cell supernatant was removed from all was by 150 μL, then a 150 μL of solution (10% Triton X-100 and 0.4% (v/v)-HCl containing isopropanol) was added thereto, followed by shaking with a plate mixer, to elute formazan. The formazan was measured with a microreader at OD: 560 nm and 690 nm (reference wavelength) and the result was compared with the reference. EC50 means the compound concentration at which cell cytotoxicity by virus is inhibited 50%.
row,Compound,EC50 [nM]
1,"Cc1c(-c2c(C(OC(C)(C)C)C(=O)O)c(C)c3c4c2c(C)cn4CCN3S(C)(=O)=O)ccc2c1CCCO2 (single isomer, unassigned) [Compound I-006]",14
2,Cc1ccc(-c2c(C(OC(C)(C)C)C(=O)O)c(C)c3c4c2cc(-c2ccnc(-c5ccc6c(cnn6C)c5)c2)n4CCN3S(C)(=O)=O)cc1 (stereo not shown) [Compound I-008],5.9
3,Cc1ccc(-c2c(C(OC(C)(C)C)C(=O)O)c(C)c3c4c2cc(-c2ccnc(N5CCN(C(C)C)CC5)n2)n4CCN3S(C)(=O)=O)cc1 (stereo not shown) [Compound I-009],32
4,Cc1ccc(-c2c(C(OC(C)(C)C)C(=O)O)c(C)c3c4c2cc(-c2ccnc(Cl)c2)n4CCN3S(C)(=O)=O)cc1 (stereo not shown) [Compound I-010],16
5,Cc1ccc(-c2c([C@H](OC(C)(C)C)C(=O)O)c(C)c3c4c2cc(-c2ccnc(-c5ccc6c(cnn6C)c5)c2)n4CCN3S(C)(=O)=O)cc1 [Compound I-011],2.3
6,CC(=O)N1CCn2c(-c3ccnc(-c4ccc5c(cnn5C)c4)c3)cc3c(-c4ccc(C)cc4)c(C(OC(C)(C)C)C(=O)O)c(C)c1c32 (stereo not shown) [Compound I-012],3.7
7,CC(=O)N1CCn2c(-c3ccnc(-c4ccc5c(cnn5C)c4)c3)cc3c(-c4ccc(C)cc4)c([C@H](OC(C)(C)C)C(=O)O)c(C)c1c32 [Compound I-013],3.4
8,Cc1c(-c2c([C@H](OC(C)(C)C)C(=O)O)c(C)c3c4c2cc(-c2ccnc(-c5ccc6c(cnn6C)c5)c2)n4CCN3S(C)(=O)=O)cc(F)c2c1CCCO2 [Compound I-014],1.3
9,Cc1c([C@H](OC(C)(C)C)C(=O)O)c(C2=CCC(C)(C)CC2)c2cc(-c3ccnc(-c4ccc5c(cnn5C)c4)c3)n3c2c1N(S(C)(=O)=O)CC3 [Compound I-015],4
10,Cc1c([C@H](OC(C)(C)C)C(=O)O)c(-c2ccc(Cl)cc2)c2cc(-c3ccnc(-c4ccc5c(cnn5C)c4)c3)n3c2c1N(S(C)(=O)=O)CC3 [Compound I-016],3.9
11,Cc1ccc(-c2c([C@H](OC(C)(C)C)C(=O)O)c(C)c3c4c2cc(-c2ccnc(N5CCN(C(C)C)CC5)c2)n4CCN3S(C)(=O)=O)cc1 [Compound I-017],9.1
12,CC(=O)N1CCn2c(-c3ccnc(-c4ccc5c(cnn5C)c4)c3)cc3c(-c4cc(F)c5c(c4C)CCCO5)c([C@H](OC(C)(C)C)C(=O)O)c(C)c1c32 [Compound I-018],1.1
13,Cc1ccc(-c2c([C@H](OC(C)(C)C)C(=O)O)c(C)c3c4c2cc(-c2ccnc(-c5ccc6c(cnn6C)c5)c2)n4CC(=O)N3)cc1 [Compound I-019],6
14,Cc1ccc(-c2c([C@H](OC(C)(C)C)C(=O)O)c(C)c3c4c2cc(-c2ccnc(-c5ccc6c(cnn6C)c5)c2)n4CC(=O)N3C)cc1 [Compound I-020],3.6
15,Cc1ccc(-c2c([C@H](OC(C)(C)C)C(=O)O)c(C)c3c4c2cc(-c2ccnc(-c5ccc6c(cnn6C)c5)c2)n4CCN3C(=O)CN(C)C)cc1 [Compound I-021],3.8
16,Cc1c(-c2c([C@H](OC(C)(C)C)C(=O)O)c(C)c3c4c2cc(-c2ccnc(-c5ccc6c(cnn6C)c5)c2)n4CCN3S(C)(=O)=O)ccc2c1NCCO2 [Compound I-022],4

row,Compound,EC50 [nM]
1,Cc1ccc(-c2c([C@H](OC(C)(C)C)C(=O)O)c(C)c3c4c2cc(-c2ccnc(-c5ccc6c(cnn6C)c5)c2)n4CC(C)N3S(C)(=O)=O)cc1 (stereo partly shown) [Compound I-023],0.82
2,Cc1ccc(-c2c([C@H](OC(C)(C)C)C(=O)O)c(C)c3c4c2cc(C(=O)N2CCC(c5ccccc5)CC2)n4CCN3S(C)(=O)=O)cc1 [Compound I-024],4.2
3,Cc1ccc(-c2c([C@H](OC(C)(C)C)C(=O)O)c(C)c3c4c2cc(-c2ccnc(-c5ccc6c(cnn6C)c5)c2)n4CS(=O)(=O)N3)cc1 [Compound I-025],89
4,CC(=O)N1CCn2c(-c3ccnc(-c4ccc5c(cnn5C)c4)c3)cc3c(C4=CCC(C)(C)CC4)c([C@H](OC(C)(C)C)C(=O)O)c(C)c1c32 [Compound I-026],3.7
5,CC(=O)N1CCn2c(-c3ccnc(-c4ccc5c(cnn5C)c4)c3)cc3c(-c4ccc5c(c4C)NCCO5)c([C@H](OC(C)(C)C)C(=O)O)c(C)c1c32 [Compound I-027],1.7
6,CC(=O)N1CCn2c(-c3ccnc(-c4ccc5c(cnn5C)c4)c3)cc3c(-c4ccc(Cl)cc4)c([C@H](OC(C)(C)C)C(=O)O)c(C)c1c32 [Compound I-028],3.3
7,Cc1ccc(-c2c([C@H](OC(C)(C)C)C(=O)O)c(C)c3c4c2cc(-c2ccnc(-c5ccc6c(cnn6C)c5)c2)n4CS(=O)(=O)N3C)cc1 [Compound I-029],2.4
8,Cc1ccc(-c2c([C@H](OC(C)(C)C)C(=O)O)c(C)c3c4c2cc(-c2ccnc(-c5ccc6c(cnn6C)c5)c2)n4CCN3C)cc1 [Compound I-030],1.9
9,Cc1ccc(-c2c([C@H](OC(C)(C)C)C(=O)O)c(C)c3c4c2cc(C(=O)NCCC(C)(C)C)n4CCN3S(C)(=O)=O)cc1 [Compound I-031],2.9
10,Cc1ccc(-c2c([C@H](OC(C)(C)C)C(=O)O)c(C)c3c4c2cc(C(=O)NCc2ccccc2)n4CCN3S(C)(=O)=O)cc1 [Compound I-032],5.2
11,Cc1ccc(-c2c([C@H](OC(C)(C)C)C(=O)O)c(C)c3c4c2cc(C(=O)NCCC(C)(C)C)n4CCN3C)cc1 [Compound I-035],5.2
12,Cc1ccc(-c2c([C@H](OC(C)(C)C)C(=O)O)c(C)c3c4c2cc(-c2nnc(-c5ccc6c(cnn6C)c5)o2)n4CCN3C)cc1 [Compound I-037],0.4
13,Cc1ccc(-c2c([C@H](OC(C)(C)C)C(=O)O)c(C)c3c4c2cc(C(=O)N(C)C)n4CCN3C)cc1 [Compound I-040],67
14,Cc1ccc(-c2c([C@H](OC(C)(C)C)C(=O)O)c(C)c3c4c2cc(-c2nnc(C)o2)n4CCN3C)cc1 [Compound I-041],4.6
15,Cc1ccc(-c2c([C@H](OC(C)(C)C)C(=O)O)c(C)c3c4c2cc(C(N)=O)n4CCN3C)cc1 [Compound I-044],44

# Tested on: not listed separately
# Test: Solubility Test
# Format: physicochemical
# Conditions: fassgf or other biorelevant, kinetic from dmso stock; 1% DMSO addition, artificial intestinal juice pH 6.8, 16 hours at 25° C.
# Procedure: The solubility of the compound of the present invention was determined under 1% DMSO addition conditions. A 10 mmol/L solution of the compound was prepared with DMSO, and 6 μL of the solution was added to 594 μL of an artificial intestinal juice (: water and a 118 mL solution of 0.2 mol/L NaOH reagent are added to 250 mL of 0.2 mol/L potassium dihydrogen phosphate reagent to reach 1000 mL) with a pH of 6.8. The mixture was left standing for 16 hours at 25° C., and the mixture was vacuum-filtered. The filtrate was two-fold diluted with methanol/water=1/1(v/v), and the compound concentration in the filtrate was measured with HPLC or LC/MS/MS by the absolute calibration method.
row,Compound,solubility at 16 h [µM]
1,Cc1ccc(-c2c([C@H](OC(C)(C)C)C(=O)O)c(C)c3c4c2cc(-c2ccnc(N5CCN(C(C)C)CC5)c2)n4CCN3S(C)(=O)=O)cc1 [Compound I-017],> 50

# Tested on: not listed separately
# Test: BA Test
# Format: in vivo
# Conditions: plasma; oral vs intravenous administration, from AUCs, mouse or SD rats
# Procedure: Materials and methods for studies an oral absorption (1) Animal: mouse or SD rats are used. (2) Breeding conditions: mouse or SD rats were allowed to freely take solid feed and sterilized tap water. (3) Dose and grouping: orally or intravenously administered at a predetermined dose; grouping is as follows (Dose depends on the compound) Oral administration: 1 to 30 mg/kg (n=2 to 3) Intravenous administration: 0.5 to 10 mg/kg (n=2 to 3) (4) Preparation of dosing solution: for oral administration, in a solution or a suspension state; for intravenous administration, in a solubilized state. (5) Administration method: in oral administration, forcedly administer into ventriculus with oralprobe; in intravenous administration, administer from caudal vein with a needle-equipped syringe. (6) Evaluation items: blood is collected over time, and the plasma concentration of drug is measured by LC/MS/MS. (7) Statistical analysis: regarding the transition of the plasma concentration, the area under the plasma concentration-time curve (AUC) is calculated by non-linear least squares program WinNonlin (Registered trademark), and the bioavailability (BA) is calculated from the AUCs of the oral administration group and intravenous administration group. (Result) Compound No. I-30: 45.2%
row,Compound,bioavailability [%]
1,Cc1ccc(-c2c([C@H](OC(C)(C)C)C(=O)O)c(C)c3c4c2cc(-c2ccnc(-c5ccc6c(cnn6C)c5)c2)n4CCN3C)cc1 [Compound I-030],45.2

# Molecular target: T1, human ether-a-go-go related gene (hERG) channel (Homo sapiens, UniProt Q12809)
# T1 construct: expressed in transfected cells; host or cells: HEK293
# Test: hERG Test
# Format: cell-based
# Conditions: compound concentration 5 μmol/L, HEK293 cells expressing hERG, patch clamp
# Text: For the purpose of assessing risk of an electrocardiogram QT interval prolongation, effects on delayed rectifier K+ current (IKr), which plays an important role in the ventricular repolarization process of the compound of the present invention, was studied using HEK293 cells expressing human ether-a-go-go related gene (hERG) channel.
# After a cell was retained at a membrane potential of −80 mV by whole cell patch clamp method using an automated patch clamp system (PatchXpress 7000A, Axon Instruments Inc.), IKr induced by depolarization pulse stimulation at +40 mV for 2 seconds and, further, repolarization pulse stimulation at −50 mV for 2 seconds was recorded. […] From the recording IKr, an absolute value of the tail peak current was measured based on the current value at the resting membrane potential using an analysis software (DataXpress ver. 1, Molecular Devices Corporation). Further, the inhibition relative to the tail peak current before application of the test substance was calculated, and compared with the vehicle-applied group (0.1% dimethyl sulfoxide solution) to access influence of the test substance on IKr. […]
# T1 sequence (Q12809 whole entry): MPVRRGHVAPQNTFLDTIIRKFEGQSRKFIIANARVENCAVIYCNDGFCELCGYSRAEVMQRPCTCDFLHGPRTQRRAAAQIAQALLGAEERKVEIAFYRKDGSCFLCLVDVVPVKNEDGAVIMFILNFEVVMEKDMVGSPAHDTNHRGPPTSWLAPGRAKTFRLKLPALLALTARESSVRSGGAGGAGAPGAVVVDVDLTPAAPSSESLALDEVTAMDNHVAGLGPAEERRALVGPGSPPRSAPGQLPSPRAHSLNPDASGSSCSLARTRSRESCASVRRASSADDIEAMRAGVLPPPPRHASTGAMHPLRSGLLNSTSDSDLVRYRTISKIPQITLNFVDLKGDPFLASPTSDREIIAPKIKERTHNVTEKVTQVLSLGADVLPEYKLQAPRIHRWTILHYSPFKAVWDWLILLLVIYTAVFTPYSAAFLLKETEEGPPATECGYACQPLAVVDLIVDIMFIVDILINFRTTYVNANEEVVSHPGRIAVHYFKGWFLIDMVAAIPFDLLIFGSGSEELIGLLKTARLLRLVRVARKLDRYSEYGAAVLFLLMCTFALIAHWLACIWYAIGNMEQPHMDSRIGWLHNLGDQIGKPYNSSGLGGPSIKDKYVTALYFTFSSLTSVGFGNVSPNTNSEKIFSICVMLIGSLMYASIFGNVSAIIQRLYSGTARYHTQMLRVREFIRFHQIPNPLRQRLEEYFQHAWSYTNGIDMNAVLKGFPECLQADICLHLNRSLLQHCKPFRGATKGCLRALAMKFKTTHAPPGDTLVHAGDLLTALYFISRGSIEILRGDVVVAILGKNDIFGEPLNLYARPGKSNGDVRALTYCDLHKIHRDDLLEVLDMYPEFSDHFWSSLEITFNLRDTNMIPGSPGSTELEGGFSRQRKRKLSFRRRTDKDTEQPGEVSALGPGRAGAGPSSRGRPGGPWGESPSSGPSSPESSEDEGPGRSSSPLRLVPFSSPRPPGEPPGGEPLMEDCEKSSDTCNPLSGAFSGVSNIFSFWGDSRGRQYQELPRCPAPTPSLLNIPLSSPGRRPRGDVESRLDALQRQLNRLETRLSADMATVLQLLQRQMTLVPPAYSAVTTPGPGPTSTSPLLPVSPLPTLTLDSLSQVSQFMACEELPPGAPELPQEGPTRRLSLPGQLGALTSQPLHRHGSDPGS
row,Compound,inhibition ratio (IKr tail peak current) [%]
1,Cc1ccc(-c2c([C@H](OC(C)(C)C)C(=O)O)c(C)c3c4c2cc(-c2ccnc(-c5ccc6c(cnn6C)c5)c2)n4CCN3C)cc1 [Compound I-030],11.7
